This passage reports IC50 results from PubChem BioAssay AID1645863 (Buhrlage Lab, Dana-Farber Cancer Institute and Novartis …, 2021).

Active and inactive are the calls of the source. How the calls were made is not given here.

This experiment deals with Ubiquitin carboxyl-terminal hydrolase 10 (Homo sapiens) (UniProt Q14694). The experiment can be described thus: ubiquitin-specific protease 10 DUB inhibitors, concentration-effect, biochemical, verification of primary screen actives (AID 1645863).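 Further: potency values describe inhibition of USP10 cleavage of a fluorogenic ubiquitin substrate.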 Particulars: USP10 deubiquitinase enzymatic assay.
Chain of Ubiquitin carboxyl-terminal hydrolase 10 (Homo sapiens) (Q14694 whole entry, looked up): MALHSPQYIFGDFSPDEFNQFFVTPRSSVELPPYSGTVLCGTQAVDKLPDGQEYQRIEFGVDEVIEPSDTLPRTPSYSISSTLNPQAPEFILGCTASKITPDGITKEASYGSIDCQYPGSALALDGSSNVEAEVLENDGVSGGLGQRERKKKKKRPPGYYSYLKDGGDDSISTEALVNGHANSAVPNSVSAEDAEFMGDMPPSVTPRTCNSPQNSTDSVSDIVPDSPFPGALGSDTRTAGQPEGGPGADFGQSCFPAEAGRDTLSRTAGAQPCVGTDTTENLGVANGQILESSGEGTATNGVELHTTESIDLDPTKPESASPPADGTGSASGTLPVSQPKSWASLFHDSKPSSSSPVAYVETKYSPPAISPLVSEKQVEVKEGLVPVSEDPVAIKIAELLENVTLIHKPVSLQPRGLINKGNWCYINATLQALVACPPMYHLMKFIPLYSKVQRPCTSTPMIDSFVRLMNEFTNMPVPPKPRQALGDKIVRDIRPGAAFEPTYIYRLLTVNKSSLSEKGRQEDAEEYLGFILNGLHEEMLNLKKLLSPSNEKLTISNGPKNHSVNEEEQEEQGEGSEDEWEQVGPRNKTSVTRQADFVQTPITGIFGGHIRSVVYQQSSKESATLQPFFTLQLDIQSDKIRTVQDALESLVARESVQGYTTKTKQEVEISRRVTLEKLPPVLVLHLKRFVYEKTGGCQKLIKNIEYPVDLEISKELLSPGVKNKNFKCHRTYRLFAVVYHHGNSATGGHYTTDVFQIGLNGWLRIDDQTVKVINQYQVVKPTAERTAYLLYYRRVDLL
For orientation: IC50 means the concentration at which inhibition is half-maximal. With `O=C(Cc1ccc(-n2c(=O)c3ccccc3n(Cc3cccc(F)c3)c2=O)cc1)NC1CCCC1`, the IC50 is > 40 µM (inactive). Under `O=C(CSc1nc2c(cnn2-c2ccccc2)c(=O)[nH]1)Nc1ccc(Cl)cc1F` stands > 40 µM (inactive); under `CCn1c(SCC(=O)c2c(N)n(CC(C)C)c(=O)n(C)c2=O)nnc1-c1ccccc1`, > 40 µM (inactive).

Turning to `COc1cc(C2CC(=O)c3c([nH]c(C(=O)OCCOc4ccccc4)c3C)C2)cc(OC)c1OC` (stereo not given), the IC50 is > 40 µM (inactive). Take `COc1ccc(NC(=O)CNC(=O)c2ccc3nc(-n4cccc4)sc3c2)cc1`: the IC50 was > 40 µM (inactive). Take `COc1ccc(C(=O)NC(Cc2ccccc2)c2nc3ccccc3[nH]2)c(OC)c1` (stereo not given): the IC50 was > 40 µM (inactive).

As for `CC(=O)Nc1ccc(Cc2nc(-c3ccc4c(c3)nc(C)c(=O)n4C3CCCC3)no2)cc1`, the IC50 was > 40 µM (inactive). Take `O=C(Nc1ccccc1C(=O)O)c1ccc(CSCc2ccccc2)cc1`: the IC50 was 10.4 µM. The value for `CC(NC(=O)c1ccccc1)c1nc2ccccc2n1CC(=O)Nc1ccc2c(c1)OCO2` (stereo not given) was 11.5 µM; that for `O=C(CSc1nc2ccccc2[nH]1)Nc1cccc2c1OCCO2` was > 40 µM (inactive).

Take `Cc1ccc(CS(=O)(=O)c2cn(CC(=O)NCCc3ccccc3)c3ccccc23)cc1`: the IC50 was > 40 µM (inactive). With `O=C(COc1ccc(Cl)cc1)Nc1noc(-c2ccccc2)n1`, the IC50 was 32.5 µM. The value for `CC(=O)NS(=O)(=O)c1ccc(NC(=O)/C=C/c2cn(-c3ccccc3)nc2-c2ccccc2)cc1` was 18.8 µM; that for `COc1cccc(NC(=O)c2cn(-c3cc(N4CCCC4)ncn3)cn2)c1` was > 40 µM (inactive); that for `O=C(NCCN1CCOCC1)c1cn2cc(Cl)ccc2n1` was > 40 µM (inactive).

Consider `O=C(Cc1ccc(-n2c(=O)c3ccccc3n(Cc3cccc([N+](=O)[O-])c3)c2=O)cc1)NC1CCCC1`, for which the IC50 was > 40 µM (inactive).

As for `O=c1oc2c3c(c(Cl)cc2c2c1CCCC2)OCN(Cc1ccccc1)C3`, the IC50 was > 40 µM (inactive). Regarding `O=C(COc1ccc(C2CCCCC2)cc1)Nc1ccc(-c2nn3cnnc3s2)cc1`, the IC50 is > 40 µM (inactive). Under `Cc1ccc(C2c3[nH]c4ccccc4c3C[C@H]3C(=O)N(c4ccc(C(=O)NCCc5ccccc5)cc4)C(=O)N23)cc1` (stereo not given in full) stands > 40 µM (inactive); under `O=C(/C=C/c1ccco1)c1cccc([N+](=O)[O-])c1`, 35.1 µM. Consider `CCc1ccccc1NC(=O)Cn1c(SCc2ccc(F)cc2)nc2cccnc21`, for which the IC50 is 25 µM. The value for `COc1ccc(-c2nc(-c3cc4cc(OC)ccc4[nH]c3=O)no2)cc1` was > 40 µM (inactive); that for `COc1ccc(-n2ccc(=O)c(-c3nc(-c4ccc(F)cc4)no3)n2)cc1` was > 40 µM (inactive). The value for `O=c1[nH]c(C2CCN(S(=O)(=O)c3ccc(S(=O)(=O)NC4CCCCC4)cc3)CC2)nc2c1nnn2Cc1c(F)cccc1Cl` was 16.4 µM; that for `Cc1ccc(Nc2nc(O)c(CC(=O)Nc3cccc(Cl)c3C)s2)cc1C` was 25.4 µM. The value for `CCOc1ccc(-n2c(SCC(=O)Nc3ccc(C)cc3)nnc2-c2c[nH]c3ccccc23)cc1` was 8.92 µM. For `CCn1cc2c(n1)c(=O)n(Cc1ccccc1)c(=O)n2CC(=O)Nc1ccc(C(C)C)cc1`, the half-maximal inhibitory concentration (IC50) is 15 µM.

Turning to `CN(C(=O)C1(c2ccccc2)CC1)c1nc2c(s1)CCc1occc1-2`, the IC50 is > 40 µM (inactive). On to `Cc1cccc(C(=O)Nc2cccc(SC(C(=O)Nc3ccc(O)c(C(=O)O)c3)c3ccccc3)c2)c1` (stereo not given), for which the IC50 is > 40 µM (inactive). Consider `Cc1ccccc1-n1ccc2nc(N3CCCC3)ncc2c1=O`, for which the IC50 is > 40 µM (inactive). Under `Cc1ccc(NCc2cc3c(-c4cccc(F)c4)nn(-c4ccccc4)c3[nH]c2=O)cc1C` stands > 40 µM (inactive). The value for `CNc1ncc(C(=O)N2CCOC(C(=O)N3CCCCCC3)C2)cn1` (stereo not given) was > 40 µM (inactive). The value for `O=[N+]([O-])c1ccc2c(c1)nc1n2CCN(Cc2ccco2)C1` was > 40 µM (inactive); that for `O=C1c2c(O)cccc2C2(Oc3cccc4cccc(c34)O2)C2OC12` (stereo not given) was 15.5 µM; that for `CC(=O)Nc1ccc(C(=O)/C=C2\NCCc3cc4c(cc32)OCCCO4)cc1` was > 40 µM (inactive). In the case of `COc1ccc(NC(=O)Cn2c(=O)n(Cc3ccco3)c(=O)c3ccc(C(=O)NC4CCCC4)cc32)cc1`, the IC50 is > 40 µM (inactive). The value for `Cc1ccc(S(=O)(=O)Nc2ccccc2C(=O)Nc2nc3ccc(Br)cc3s2)cc1` was > 40 µM (inactive); that for `CN1C(=O)COc2cc(-c3noc(C(=O)NCc4ccc(F)cc4)n3)ccc21` was 24.9 µM. Under `O=C1c2c(O)c(Cl)cc3c2[C@@]2(Oc4ccc(O)c5c4[C@]3(O2)[C@@H]2O[C@@H]2C5=O)[C@@H]2O[C@H]12` stands 1.31 µM; under `Cn1cc(-c2nc(C(=O)Nc3ccc(C#N)cc3)cs2)c2cccnc21`, > 40 µM (inactive); under `CC(C)CC(NC(=O)c1ccc(Cl)cc1Cl)c1nc2ccccc2[nH]1` (stereo not given), > 40 µM (inactive). For `CCc1ccc(S(=O)(=O)c2cn(CC(=O)Nc3ccccc3)c3ccccc3c2=O)cc1`, the IC50 was > 40 µM (inactive). Turning to `CCC(=O)Nc1nc2cc(NC(=O)Nc3ccccc3Cl)ccc2s1`, the IC50 is > 40 µM (inactive). Under `Cc1cccn2c(=O)c3cc(C#N)c(=O)n(-c4cccc(C(F)(F)F)c4)c3nc12` stands > 40 µM (inactive); under `O=C(Cn1c(=O)c2cccn2c2ccccc21)NCc1ccc(F)cc1`, > 40 µM (inactive). The value for `COCCCNC(=O)c1ccc(Cn2c(=O)c3ccccc3n(CC(=O)Nc3ccc(OC)cc3)c2=O)cc1` was > 40 µM (inactive); that for `COc1cccc(CNc2ccc(-c3nc(-c4ccccc4)no3)nn2)c1` was > 40 µM (inactive). The value for `O=C(Nc1cccc(-c2nc3ncccc3o2)c1)c1ccc([N+](=O)[O-])cc1` was > 40 µM (inactive); that for `O=C(Nc1cccc(Cl)c1)c1ncn2c1CNS(=O)(=O)c1ccccc1-2` was 19.1 µM. On to `CCc1ccc(NC(=O)Cc2nnc3cc(-c4nc(C)no4)ccn23)cc1`, for which the concentration for half-maximal inhibition (IC50) was 12.7 µM. The value for `COc1c(C)c(C(O)C(C)O)c2[nH]c3ccc(CC=C(C)C)cc3c2c1O` (stereo not given) was > 40 µM (inactive); that for `CCOc1ccc(-c2nc(SCC(=O)Nc3cccc(C)c3)n3[nH]c(=O)cc3n2)cc1` was > 40 µM (inactive); that for `COc1cc2c(c(OCC(=O)Nc3ccc4c(c3)OCCO4)c1)C(=O)O[C@@H](C)CCCC(=O)CCCCC2` was 31.5 µM. Under `O=C1CSC(c2ccc3c(c2)OCO3)c2c(n(C3CCCCCC3)[nH]c2=O)N1` (stereo not given) stands 36.8 µM; under `N#Cc1cccc(NC(=O)Nc2cccn(Cc3ccc(F)cc3)c2=O)c1`, > 40 µM (inactive). Take `COc1ccc(Nc2nnc(Cc3ccc(Cl)cc3)c(=O)[nH]2)cc1`: the IC50 was 18.7 µM.

`Cc1ccc(Cn2c(=O)c3ncccc3n(CC(=O)NCc3ccc(F)cc3)c2=O)cc1`: the half-maximal inhibitory concentration (IC50) is 26.1 µM. The value for `O=C(Cn1c(=O)[nH]c2c(-c3ccccc3)c[nH]c2c1=O)NCc1ccccc1Cl` was > 40 µM (inactive); that for `O=C(Cn1cc(C(=O)C(F)(F)F)c2cc(Br)ccc21)N1CCc2ccccc21` was 35.6 µM.

In the case of `COc1ccc(C(=O)Nc2ccccc2C(=O)NC(Cc2ccc(O)cc2)C(=O)NNC(=O)c2ccccc2Cl)cc1` (stereo not given), the IC50 was > 40 µM (inactive). Under `Cc1ccc(C(=O)c2cn(CC(=O)Nc3ccc4c(c3)OCO4)c3ccccc3c2=O)cc1` stands 16.4 µM; under `CCCn1cc(C(=O)N2CCC3(CC2)CC2(CO3)Nc3ccccc3-n3cccc32)c(C)n1` (stereo not given), > 40 µM (inactive). The value for `CCCCCCCc1cc(OC(=O)c2c(CCCCCCC)cc(O)cc2O[C@@H]2O[C@H](CO)[C@H](O)[C@H](O)[C@H]2O)cc(O)c1C(=O)O` was 5.17 µM; that for `O=C(c1ccccc1CN1CCOCC1)N1CCOCC2(C1)CN(c1ccc(F)cc1)C(=O)O2` (stereo not given) was > 40 µM (inactive). The value for `Cc1c(NC(=O)/C=C/c2cccc(Cl)c2Cl)cccc1-n1cnnn1` was > 40 µM (inactive).
